Data reported in patent publication US8637681B2, “Pyrrolyl substituted dihydroindol-2-one derivatives, preparation methods and uses thereof” (Qilu Pharmaceutical Co., Ltd., priority 2010, dated 2014).

Legend:
[1] = tested on: human colon cancer HT 29 transplanted tumor; assay: Nude mice transplanted tumor test; assay type: in vivo, female Balb/cA nude mice; set-up: key to d21 Vave ± SD (average tumor volume): tumor volume TV = ½×a×b² (a, b = major, minor diameter), in mm³; settings: for Dead animal number / inhibition in vivo at 80 mg/kg / d21 Wave ± SD (average bodyweight of nude mice) / d21 Vave ± SD (average tumor volume) / d21 RTV ± SD (relative tumor volume): 80 mg/kg intragastrically each day for 20 days; for Dead animal number: dead/total animals; for inhibition in vivo at 80 mg/kg: Mus musculus, HT-29, po, 504 h, (1−T/C)×100%, read-out: Tumor inhibition rate d21 (%); for inhibition in vivo at 80 mg/kg / d21 Wave ± SD (average bodyweight of nude mice) / d21 Vave ± SD (average tumor volume) / d21 RTV ± SD (relative tumor volume): d21; for d0 Wave ± SD (average bodyweight of nude mice): d0, at grouping before administration (baseline); for d21 Vave ± SD (average tumor volume): HT 29 in nude mice; for d21 RTV ± SD (relative tumor volume): RTV=Vt/V0
Method in brief: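 Female Balb/cA nude mice bearing HT 29 colon tumour fragments in the right axilla, grouped at about 120 mm^3, received 80 mg/kg intragastrically daily for 20 days; vehicle was water with 0.1% Tween 80. Tumour volume (½×a×b^2) measured 2-3 times weekly, expressed as relative tumour volume Vt/V0.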

[2] = Cytotoxicity test (SRB), A549; assay type: cell-based; settings: human, A549 non-small cell lung cancer cells
Method in brief: (§1)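 Cells seeded at 4000/well in DMEM with 10% FBS, adhered overnight, then treated 72 h at 37° C, 5% CO2 with compound (final DMSO 0.25%). TCA-fixed and stained with SRB, A540 read. IC50 (μM) calculated by Logit method.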

[3] = tested on: three kinds of tumor cells (A549, Hela, A431); assay: Cytotoxicity test, summary over the three tumor cell lines; assay type: cell-based, human; settings: compared with positive control Sunitinib
Experimental: Cytotoxicity of the compounds of the present invention was tested with human non-small cell lung cancer cells A549, human cervical cancer Hela cells, human skin cancer cells A431. The test was performed by referring to the method described by Rusnak et al (Rusnak D. W., et al., Cell Prolif., 2007, 40, 580-94).
In Dulbecco's Modified Eagle Medium (DMEM) comprising 10% fetal bovine serum, 2 mM glutamine and non-essential amino acids, cells were cultured at 37° C. in 5% CO2 cell incubator. Trypsin/ethylenediamine tetraacetic acid (EDTA) were used to harvest cells in cell culture bottle. The cells were added to a 96-well cell culture plate, 4000/well (0.1 ml medium), adhering wall overnight, 0.1 ml of the diluted solution of the compounds to be tested was added, the final concentration of DMSO was 0.25%. The cell culture plate was incubated at 37° C., 5% CO2 conditions for 72 h. The change of cellular morphology was observed under microscope, and then 50 μl of 50% (mass/volume) trichloroacetic acid (TCA) was added to each well to fix cells. The final concentration of TCA was 10%. It stood for 5 min, than was placed in 4° C. refrigerator for 1 h, the wells of the culture plate were washed with deionized water for 5 times to remove TCA, drained, dried in air until no wet trace was observed. 100 μl of 0.4% (mass/volume) SRB was added to each well, stood at room temperature for 10 min. The liquid in each well was discarded, and then the wells were washed with 1% acetic acid for 5 times, dried in air, extracted with 150 μl of 10 mM Tris base (trihydroxymethylaminomethane, pH 10.5). The absorption at a wavelength of 540 nm was measured. The IC50 (μM) of the compound was calculated using Logit method.

[4] = tested on: arterial ring angiogenesis in rats; assay: Inhibitory actions on arterial ring angiogenesis in rats; assay type: cell-based; settings: Rattus norvegicus, area covered by micrangiums vs control well, read-out: Inhibitory rate (%); for inhibition at 0.2 µg/mL: 0.2 μg/ml; for inhibition at 1 µg/mL: 1 μg/ml; for inhibition at 5 µg/mL: 5 μg/ml
Method in brief: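 Rat thoracic aorta cut into 1 mm rings, embedded in Matrigel and cultured at 37 °C with compound; medium and drug renewed every 3 days. Microvessel sprouting area imaged by microscopy; inhibition (%) = (control area − drug area)/control area × 100.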

[5] = Cytotoxicity test (SRB), Hela; assay type: cell-based; settings: human, Hela cervical cancer cells
Method in brief: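 A549, Hela and A431 cells seeded at 4000/well, adhered overnight, then exposed to compound dilutions (final DMSO 0.25%) for 72 h at 37° C., 5% CO2. SRB read-out: absorbance at 540 nm; IC50 (μM) calculated by Logit method.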

[6] = Cytotoxicity test (SRB), A431; assay type: cell-based; settings: human, A431 skin cancer cells
Method in brief: as §1

SMILES | Dead animal number [1] | inhibition in vivo at 80 mg/kg [1] [%] | d0 Wave ± SD (average bodyweight of nude mice) [1] | d21 Wave ± SD (average bodyweight of nude mice) [1] | d21 Vave ± SD (average tumor volume) [1] | d21 RTV ± SD (relative tumor volume) [1] | IC50 at 72 h [2] [µM] | Cytotoxicity to tumor cells (in words) [3] | inhibition at 0.2 µg/mL [4] [%] | inhibition at 1 µg/mL [4] [%] | inhibition at 5 µg/mL [4] [%] | IC50 at 72 h [5] [µM] | IC50 at 72 h [6] [µM] | d21 Vave ± SD (average tumor volume) ([1]; in mm³ (unit assumed)) | Activity of inhibiting HT-29 transplanted tumor in vivo (in words) ([1]; 80 mg/kg, compared with positive control Sunitinib)
C=CC(=O)Nc1c(C)[nH]c(/C=C2\C(=O)Nc3ccc(F)cc32)c1C [Compound 7, N-{5-[5-fluoro-2-oxo-1,2-dihydro-indol-(3Z)-ylidenemethyl]-2,4-dimethyl-1H-pyrrol-3-yl}-acrylamide] | 0/6 | 59.8 | 19.4 ± 0.41 | 20.9 ± 0.38 | 359.8 ± 45.4 | 2.89 ± 1.05 | > 30 | certain toxicity to some cells | 95 | 100 | 100 | 6.78 | > 30 | – | –
CCN(CC)CCS(=O)(=O)Nc1c(C)[nH]c(/C=C2\C(=O)Nc3ccc(F)cc32)c1C [Compound 9, N-{5-[5-fluoro-2-oxo-1,2-dihydro-indol-(3Z)-ylidenemethyl]-2,4-dimethyl-1H-pyrrol-3-yl}-2-(N,N-diethylamino)ethylsulfonamide] | 0/6 | 63 | 19.6 ± 0.25 | 21.4 ± 0.38 | 328.3 ± 45.4 | 2.66 ± 0.69 | > 30 | certain toxicity to some cells | 93 | 100 | 100 | > 30 | 8.58 | – | –
Cc1[nH]c(/C=C2\C(=O)Nc3ccc(F)cc32)c(C)c1NC(=O)CCN1CCOCC1 [Compound 12, N-{5-[5-fluoro-2-oxo-1,2-dihydro-indol-(3Z)-ylidenemethyl]-2,4-dimethyl-1H-pyrrol-3-yl}-3-(morpholin-4-yl)propionamide] | 0/6 | 79.8 | 17.2 ± 0.54 | 19.1 ± 0.57 | – | 1.45 ± 0.37 | > 30 | certain toxicity to some cells | 94 | 100 | 100 | 4.75 | 7.59 | 197.9 ± 48.1 | –
Cc1[nH]c(/C=C2\C(=O)Nc3ccc(F)cc32)c(C)c1NC(=O)CCN1CCCCC1 [Compound 13, N-{5-[5-fluoro-2-oxo-1,2-dihydro-indol-(3Z)-ylidenemethyl]-2,4-dimethyl-1H-pyrrol-3-yl}-3-(piperidin-1-yl)propionamide] | 0/6 | 71.1 | 19.1 ± 0.85 | 20.1 ± 0.88 | – | 2.08 ± 0.59 | > 30 | certain toxicity to some cells | 93 | 100 | 100 | > 30 | 8.69 | 253.8 ± 56.4 | –
CCN(CC)CC(=O)Nc1c(C)[nH]c(/C=C2\C(=O)Nc3ccc(F)cc32)c1C [Compound 20, N-{5-[5-fluoro-2-oxo-1,2-dihydro-indol-(3Z)-ylidenemethyl]-2,4-dimethyl-1H-pyrrol-3-yl}-2-(N,N-diethylamino)acetamide] | 0/6 | 89.4 | 19.6 ± 0.69 | 20.3 ± 0.63 | – | 0.76 ± 0.32 | > 30 | certain toxicity to some cells | 98 | 100 | 100 | 5.21 | > 30 | 93.5 ± 42.8 | inhibitory activity comparable to the positive control Sunitinib
